“Also recorded” adds a separate entry of the source. Like-named read-outs stand apart in the source and are kept apart here.
Assays:
[1] = tested on: nonsense mutation constructs (p2luc, R3381X, R3X, R245X, G542X, W1282X, Q70X, W402X); test: In vitro dual luciferase readthrough assay; assay type: biochemical; conditions: for reduction in overall translation: highest concentration, Renilla luciferase activity ratio, all eight constructs
mice = conditions: cited from earlier work
premature stop codons = conditions: cited from earlier work
[2] = tested on: human CFTR-G542X nonsense mutation; conditions: clinical doses, transgenic CF mouse; cited from earlier work
[3] = tested on: human cytoplasmic A site sequence; conditions: cited from earlier work
[4] = tested on: PCDH15-R3X nonsense mutation; test: Ex vivo dual luciferase readthrough assay in COS-7 cells; assay type: cell-based, monkey
[5] = Acute intravenous toxicity; set-up: species or system mice; conditions: male, BALB/C, mouse, in vivo
[6] = tested on: hair cells of mouse organ of Corti explants; test: Ototoxicity: hair cell loss in cochlear explants; assay type: cell-based; conditions: 0.2 mM, basal part

Compound: NC[C@@H]1O[C@H](O[C@H]2[C@@H](O)[C@H](O[C@@H]3[C@@H](O)[C@H](N)C[C@H](N)[C@H]3O[C@H]3O[C@H](CO)[C@@H](O)[C@H](O)[C@H]3N)O[C@@H]2CO)[C@H](N)[C@@H](O)[C@@H]1O [Paromomycin, paromomycin]
- reduction in overall translation [1]: approximately 40%

Compound: NCC[C@H](O)C(=O)N[C@@H]1C[C@H](N)[C@@H](O[C@H]2O[C@H](CN)CC[C@H]2N)[C@H](O)[C@H]1O[C@H]1O[C@H](CO)[C@@H](O)[C@H](N)[C@H]1O [arbekacin]
- LD50 (mice; acute lethal toxicity): 118 mg/kg

Compound: NC[C@H]1O[C@H](O[C@H]2[C@H](O)[C@@H](O[C@H]3O[C@H](CO)[C@@H](O)[C@H](N)[C@H]3O)[C@H](N)C[C@@H]2N)[C@H](N)C[C@@H]1O [tobramycin]
- suppression activity (premature stop codons): does not have suppression activity

Compound: NCC[C@H](O)C(=O)N[C@@H]1C[C@H](N)[C@@H](O[C@H]2O[C@H](CN)[C@@H](O)[C@H](O)[C@H]2O)[C@H](O)[C@H]1O[C@H]1O[C@H](CO)[C@@H](O)[C@H](N)[C@H]1O [amikacin]
- LD50 (mice; acute intravenous toxicity in mice): 300 mg/kg
- readthrough potency, fold lower than gentamicin (premature stop codons): over 10 fold
- suppression of CFTR-G542X nonsense mutation [2]: highly effective suppression

Compound: NC[C@H]1O[C@H](O[C@H]2[C@H](O)[C@@H](O)[C@H](N)C[C@@H]2N)[C@H](N)[C@@H](O)[C@@H]1O [neamine]
- LD50 (mice; acute lethal toxicity): 125 mg/kg

Compound: NC[C@H]1O[C@@H](O[C@@H]2[C@@H](O)[C@H](N)C[C@H](N)[C@H]2O[C@H]2O[C@H](CO)[C@@H](O)[C@H](O)[C@H]2N)[C@H](O)[C@@H]1O [compound 1]
- fold weaker affinity than paromomycin [3]: about 100 fold

Compound: NC[C@H]1O[C@H](O[C@H]2[C@H](O[C@@H]3O[C@H](CO)[C@@H](O)[C@H]3O)[C@@H](O)[C@H](N)C[C@@H]2N)[C@H](N)[C@@H](O)[C@@H]1O [ribostamycin]
- LD50 (mice; acute lethal toxicity): 260 mg/kg

Compound: NCC[C@H](O)C(=O)N[C@@H]1C[C@H](N)[C@@H](O[C@H]2O[C@H](CO)[C@@H](O)[C@H](O)[C@H]2N)[C@H](O[C@@H]2O[C@H](CN)[C@@H](O)[C@H]2O)[C@H]1O [compound 2, 5-O-(5-Amino-5-deoxy-β-D-ribofuranosyl)-1-N-[(S)-4-amino-2-hydroxy-butanoyl]paromamine]
- reduction in overall translation [1]: approximately 50%
- level of readthrough (rank among four aminoglycosides) ([1]; in vitro, eight constructs): induced the highest level of readthrough
- fold more effective (maximal suppression) than compound 1 ([4]; COS-7, vs compound 1): 1.9 fold
- fold more effective (maximal suppression) than gentamicin ([4]; COS-7, vs gentamicin): 2.8 fold
- fold more effective (maximal suppression) than paromomycin ([4]; COS-7, vs paromomycin): 3.2 fold

Compound: NCCC(O)C(=O)NC1CC(N)C(OC2OC(CN)C(O)C(O)C2N)C(O)C1O (stereo not shown) [N-1-AHB-neamine]
- LD50 (mice; acute lethal toxicity): 260 mg/kg

Compound: CNC(C)C1CCC(N)C(OC2C(N)CC(N)C(OC3OCC(C)(O)C(NC)C3O)C2O)O1 (stereo not shown) [Gentamicin, gentamicin]
- LD50 at 4 days [5]: 60 mg/kg
- reduction in overall translation [1]: approximately 50%
- maximal suppression level ([4]; COS-7 cells): 1.86%
- hair cell loss in cochlear explants [6]: hair cell loss was almost complete; also recorded: cell loss is almost complete

Compound: kanamycin A
- readthrough activity (premature stop codons): does not show measurable readthrough activity

Compound: NC[C@@H]1CC[C@@H](N)[C@@H](O[C@H]2[C@H](O)[C@@H](O[C@H]3O[C@H](CO)[C@@H](O)[C@H](N)[C@H]3O)[C@H](N)C[C@@H]2N)O1 [dibekacin]
- LD50 (mice; acute lethal toxicity): 71 mg/kg

Compound: butirosin
- LD50 (mice; acute lethal toxicity): 520 mg/kg

— paper PMC2832307 (Journal of medicinal chemistry, 2009)
